Results: patent US8049020B2 (priority 2006, dated 2011)

Legend:
murine splenocytes = assay: ConA mitogen-stimulated proliferation of murine splenocytes ([3H]-thymidine incorporation); assay type: cell-based, mouse (BALB/c); details: for IC50: ConA 1 μg/ml, [3H]-thymidine incorporation, nonlinear regression, read-out: IC50 (dose of compound required to inhibit 50% of a proliferating population of murine splenocytes); for Effect on splenocyte proliferation (counts per minute vs concentration, FIG. 1 and 2): ConA-stimulated murine splenocytes, result in words
Protocol: I. ConA Mitogen-Stimulated Proliferation of Murine Splenocytes
The concanavalin A (ConA) cell proliferation assay was used to assess the effect of test homoserine lactone (HSL) compounds on T-cell activation and proliferation. Proliferation was assessed by the incorporation of [^3H]-thymidine into DNA. Eight-week-old female BALB/c mice were obtained from Harlan (Bicester, Oxon, UK) and given food and water ad libitum. Splenocyte suspensions were prepared by removing the spleens and placing them into RPMI 1640 medium. The spleens were forced through 70-μm-pore-size wire gauzes using the plunger from a 5-ml syringe to produce a single cell suspension. The cells were pelleted by centrifugation, and erythrocytes were lysed with 0.017 M Tris, 0.144 M ammonium chloride buffer, pH 7.2. Leucocytes were washed twice with RPMI 1640 medium with 2% (vol/vol) foetal calf serum (FCS) and resuspended in complete cell culture medium (CTCM) consisting of RPMI 1640 medium with 5% FCS, 2 mM L-glutamine, and 5×10^−5 M 2-mercaptoethanol. HSL compounds were tested at doubling down dilutions ranging from 1 mM to 0.1 μM in a final volume of 200 μl of CTCM, containing ConA (Sigma, Poole, UK) at 1 μg/ml and 100,000 spleen cells. Following incubation for 48 h at 37° C. in 5% CO2-air, 0.25 μCi[^3H]-thymidine (Amersham) in 10 μl volume made up in RPMI 1640 medium was added and the cells were incubated for a further 24 h. Cells were harvested onto fibreglass filters with a Packard filtermate harvester. After the addition of 25 μl of MicroScint-O (Packard) to each well, the filters were counted with the Packard TopCount scintillation counter.
Mitogen (Concanavalin A) induced murine splenocyte proliferation was indicated by the incorporation of tritated thymidine into the DNA in the mouse spleen cells as shown by counts per minute using the scintillation counter. The inhibitory effect of an HSL compound being tested on cell proliferation was indicated by a reduction in counts per minute.
The IC50 value, i.e. the dose of compound (micromolar) required to inhibit 50% of a proliferating population of murine splenocytes, was determined for 4-aza-OdDHL, 4-methyl-4-aza-OdDHL and for the compound N-(2-fluoro-4-aza-3-oxododecanoyl)-L-homoserine lactone (2-fluoro-4-aza-OdDHL).

[1] = test system: E. coli JM109 harbouring the reporter plasmid pSB1075 (P. aeruginosa lasR gene and lasI promoter fused to luxCDABE); assay: Autoinducer activity: lux-based bioluminescence bioreporter assay; assay type: cell-based; details: 10 μM compound; 4 hours at 37° C.; relative to OdDHL
Protocol: Also determined for each of these compounds was the autoinducer activity as a measure of the ability of the compound to induce light production in a specifically designed bacterial bioreporter system. Autoinducer (A.I.) activity was measured by the ability of the test N-acyl homoserine lactone compound (AHL) to induce bioluminescence in E. coli containing a lux-based bioluminescence reporter plasmid. For detection of a long chain AHL, such as OdDHL, E. coli JM109 harbouring the reporter plasmid pSB1075 was used. This reporter contains the P. aeruginosa IasR gene and IasI promoter fused to IuxCDABE from P. luminescens and preferentially responds to AHLs with acyl chains of 10-14 carbons in length.
Bioassays were performed in 96 well microliter plates. Briefly, 10 μl of the compound being assessed was placed into a microliter well plate and serially diluted using LB broth to produce a concentration range from 100 μM to 100 fM. Similar dilutions were performed on a synthetic OdDHL and used as a positive control. One hundred microliters of an overnight biosensor strain was added to each well and light emission was measured following 4 hours incubation at 37° C. Light production was assessed as counts per second on Perkin Elmer TopCount apparatus calibrated to measure bioluminescence. Values are expressed as a percentage of the bioluminescence measured after exposure of the bioreporter to OdDHL for four hours at 37° C. Logarithmic regression analysis of the range of synthetic OdDHL dilutions typically returned coefficient of determination values above 0.96.

murine spleen cells = details: Infection and Immunity, vol. 66, No. 1, January 1998; cited from earlier work
[2] = test system: LPS-stimulated adherent murine peritoneal macrophages (TNF-α production); details: Infection and Immunity, vol. 66, No. 1, January 1998; cited from earlier work

| Compound | IC50 (murine splenocytes) [µM] | Effect on splenocyte proliferation (counts per minute vs concentration, FIG. 1 and 2) (murine splenocytes) | AI activity (autoinducer activity, percentage of the bioluminescence measured after exposure to OdDHL) [1] [%] | Effect on ConA mitogen stimulated proliferation of murine spleen cells (murine spleen cells) | Effect on TNF-α production by LPS-stimulated adherent murine peritoneal macrophages [2] |
| --- | --- | --- | --- | --- | --- |
| CCCCCCCCN(C)C(=O)CC(=O)N[C@H]1CCOC1=O [4-methyl-4-aza-OdDHL, N-(4-aza-4-methyl-3-oxododecanoyl)-L-homoserine lactone] | 14.6 | inhibits splenoctye proliferation | 23.2 |  |  |
| CCCCCCCCCC(=O)CC(=O)N[C@H]1CCOC1=O [OdDHL, N-(3-oxododecanoyl) homoserine lactone, reference compound] | 12.7 | inhibits splenocyte proliferation | 100.0 | inhibiting | inhibiting |
| CCCCCCCCNC(=O)CC(=O)N[C@H]1CCOC1=O [Example 4-aza-OdDHL, N-(4-aza-3-oxododecanoyl)-L-homoserine lactone] | 17.1 | inhibits splenocyte proliferation | 2.8 |  |  |
| CCCCCCCCNC(=O)C(F)C(=O)N[C@H]1CCOC1=O (stereo partly drawn) [2-fluoro-4-aza-OdDHL, 4-Aza-2-fluoro-3-oxododecanoyl-L-homoserine lactone] | 21.8 |  | 19.9 |  |  |
